The target in data set [1] is T1, human cloned 5-HT6 receptors (Homo sapiens, UniProt P50406).
T1 construct: expressed in transfected cells; host or cells: HeLa cells
Kind of data set: 5-HT6 binding affinity ([3H]-LSD displacement, membranes of Hela cells). How it is done: The affinity of test compounds for the serotonin 5-HT6 receptor is evaluated in the following manner. Cultured Hela cells expressing human cloned 5-HT6 receptors are harvested and centrifuged at low speed (1,000×g) for 10.0 min to remove the culture media. The harvested cells are suspended in half volume of fresh physiological phosphate buffered saline solution and recentrifuged at the same speed. This operation is repeated. The collected cells are then homogenized in ten volumes of 50 mM Tris.HCl (pH 7.4) and 0.5 mM EDTA. The homogenate is centrifuged at 40,000×g for 30.0 min and the precipitate is collected. The obtained pellet is resuspended in 10 volumes of Tris.HCl buffer and recentrifuged at the same speed. The final pellet is suspended in a small volume of Tris.HCl buffer and the tissue protein content is determined in aliquots of 10-25 μl volumes. Bovine Serum Albumin is used as the standard in the protein determination according to the method described in Lowry et al., J. Biol. Chem., 193:265 (1951). The volume of the suspended cell membranes is adjusted to give a tissue protein concentration of 1.0 mg/ml of suspension. The prepared membrane suspension (10 times concentrated) is aliquoted in 1.0 ml volumes and stored at −70° C. until used in subsequent binding experiments.
Binding experiments are performed in a 96 well microtiter plate format, in a total volume of 200 μl. […] The test compounds are added in 20.0 μl volume.
The reaction is allowed to proceed in the dark for 120 min at room temperature, at which time, the bound ligand-receptor complex is filtered off on a 96 well unifilter with a Packard Filtermate® 196 Harvester. The bound complex caught on the filter disk is allowed to air dry and the radioactivity is measured in a Packard TopCount® equipped with six photomultiplier detectors, after the addition of 40.0 μl Microscint®-20 scintillant to each shallow well. The unifilter plate is heat-sealed and counted in a PackardTopCount® with a tritium efficiency of 31.0%.
Binding in the presence of varying concentrations of test compound is expressed as a percentage of specific binding in the absence of test compound. The results are plotted as log % bound versus log concentration of test compound. […] A linear regression line of data points is plotted, from which the IC50 value is determined and the Ki value is determined based upon the following equation: Ki=IC50/(1+L/KD) where L is the concentration of the radioactive ligand used and KD is the dissociation constant of the ligand for the receptor, both expressed in nM.

The mark [2] stands for this setting: [3H]-LSD 3.0 nM, Hela cell membranes expressing human cloned 5-HT6 receptors, 120 min at room temperature, read-out: 5-HT6 Binding Ki.

Structures can show the parent of a compound that is named as a salt. Where two headings read alike, the source gives them in different places.

One may read the Ki as a measure of affinity in units of concentration, obtained from inhibition or displacement. Broadly, the melting point is the temperature of the solid-liquid transition.

T1 sequence (P50406 whole entry): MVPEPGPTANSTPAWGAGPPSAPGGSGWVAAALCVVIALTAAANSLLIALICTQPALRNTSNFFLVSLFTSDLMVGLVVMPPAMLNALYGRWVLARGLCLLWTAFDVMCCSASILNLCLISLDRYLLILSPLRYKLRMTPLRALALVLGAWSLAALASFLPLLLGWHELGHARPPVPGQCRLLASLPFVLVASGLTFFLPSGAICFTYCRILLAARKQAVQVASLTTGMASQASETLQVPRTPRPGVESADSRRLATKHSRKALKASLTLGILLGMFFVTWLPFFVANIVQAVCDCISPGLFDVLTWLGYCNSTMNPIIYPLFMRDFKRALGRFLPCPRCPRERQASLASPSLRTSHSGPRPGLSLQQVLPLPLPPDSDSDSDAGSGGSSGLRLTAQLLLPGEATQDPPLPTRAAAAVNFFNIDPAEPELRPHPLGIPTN

As for `O=S(=O)(c1ccccc1)c1cn(CC2CCNCC2)c2ccccc12` [Example 4, 3-(Phenylsulfonyl)-1-(Piperidin-4-ylmethyl)-1H-indole Hydrochloride], the Ki in data set [1] (setting [2]) was found to be 27 nM. As for `O=S(=O)(c1ccccc1)c1cn(C2CCCN(Cc3ccccc3)C2)c2ccccc12` (stereo not drawn) [Example 8, 1-(1-Benzylpiperidin-3-yl)-3-(phenylsulfonyl)-1H-indole], in data set [1] (setting [2]), the Ki worked out at 122 nM. As to `O=S(=O)(c1ccccc1)c1cn(C2CCCNC2)c2ccccc12` (stereo not drawn) [Example 9, 3-(Phenylsulfonyl)-1-(piperidin-3-yl)-1H-indole Hydrochloride], the Ki in data set [1] (setting [2]) worked out at 13 nM.

Molecule `O=S(=O)(c1ccccc1)c1cn(C2CCN(Cc3ccccc3)CC2)c2ccccc12` [Example 12] had a melting point of 288 to 291 °C. In addition, in data set [1], the Ki came to 49 nM.

The molecule `O=S(=O)(c1ccccc1)c1cn(C2CCNCC2)c2ccccc12` [Example 13] registered a melting point of 294 to 297 °C. Further, the Ki in data set [1] (setting [2]) came to 91 nM.

In the case of `O=S(=O)(c1cccc2ccccc12)c1cn(C2CCCNC2)c2ccccc12` (stereo not drawn) [Example 14], the melting point is > 180 °C (dec.). Also, the Ki in data set [1] (setting [2]) worked out at 21 nM. Consider `O=S(=O)(c1cn(C2CCCNC2)c2ccccc12)c1cccc2cccnc12` (stereo not drawn) [Example 15], for which the melting point was > 195 °C (dec.). For the same molecule, the inhibition constant Ki in data set [1] (setting [2]) turned out to be 6 nM.

`O=S(=O)(c1cccc(Cl)c1)c1cn(C2CCCNC2)c2ccccc12` (stereo not drawn) [Example 17]: the melting point was > 150 °C (dec.). For the same molecule, the Ki in data set [1] (setting [2]) was 5 nM. Molecule `COc1ccc2c(c1)c(S(=O)(=O)c1cccc(F)c1)cn2C1CCCNC1` (stereo not drawn) [Example 18] returned a melting point of 267 to 270 °C. Further, the Ki in data set [1] (setting [2]) came to 11 nM. Regarding `COc1ccc2c(c1)c(S(=O)(=O)c1cccc(F)c1)cn2C1CCCN(C)C1` (stereo not drawn) [Example 19], the melting point was in the range of 262 to 265 °C. The inhibition constant (Ki) in data set [1] (setting [2]) was 68 nM. For `O=S(=O)(c1cccc(F)c1)c1cn(C2CCCNC2)c2ccc(F)cc12` (stereo not drawn) [Example 20], in data set [1] (setting [2]), the Ki was 4 nM. Same read-out and setting: to `O=S(=O)(c1cccc(F)c1)c1cn(C2CCCNC2)c2ccc(Cl)cc12` (stereo not drawn) [Example 22] belongs 29 nM. The molecule `CN1CCCC(n2cc(S(=O)(=O)c3cccc(F)c3)c3cc(Cl)ccc32)C1` (stereo not drawn) [Example 23] had a melting point of 242 to 245 °C. Further, the Ki in data set [1] (setting [2]) was 62 nM.

The values are drawn from patent publication US7589108B2, “1-Heterocyclylalkyl-3-sulfonylindole or -indazole derivatives as 5-hydroxytryptamine-6 ligands” (Wyeth, priority 2002, dated 2009).
